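Compound exposure: 48 hours, 5 concentrations, 96-well plates. Here, GI50 denotes the concentration required for 50% inhibition of growth.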 Calls of active or inactive are those of the source. Rule as the data show it: active = GI50 up to about 1.1 µM and inactive = higher.
Legend:
Experiment in all cases: NCI-60 cell line screen, 48 h
CAKI-1 = test system: CAKI-1
NCI-H226 = test system: NCI-H226
NCI/ADR-RES = test system: NCI/ADR-RES
TK-10 = test system: TK-10
Hs-578T = test system: Hs-578T
HCT-15 = test system: HCT-15
SK-MEL-2 = test system: SK-MEL-2
EKVX = test system: EKVX
SNB-19 = test system: SNB-19
U-251 = test system: U-251
COLO 205 = test system: COLO 205
NCI-H522 = test system: NCI-H522
T47D = test system: T47D
HT-29 = test system: HT-29
NCI-H23 = test system: NCI-H23
HOP-62 = test system: HOP-62
NCI-H460 = test system: NCI-H460
MDA-MB-435 = test system: MDA-MB-435
SF-295 = test system: SF-295
HCC 2998 = test system: HCC 2998

Compound	GI50 (CAKI-1)	GI50 (NCI-H226)	GI50 (NCI/ADR-RES)	GI50 (TK-10)	GI50 (Hs-578T)	GI50 (HCT-15)	GI50 (SK-MEL-2)	GI50 (EKVX)	GI50 (SNB-19)	GI50 (U-251)	GI50 (COLO 205)	GI50 (NCI-H522)	GI50 (T47D)	GI50 (HT-29)	GI50 (NCI-H23)	GI50 (HOP-62)	GI50 (NCI-H460)	GI50 (MDA-MB-435)	GI50 (SF-295)	GI50 (HCC 2998)
FC(F)(F)c1nc2nc(Cl)c(Cl)nc2n1CCCN1CCOCC1	3.71 µM (inactive)	> 100 µM (inactive)	> 100 µM (inactive)	> 100 µM (inactive)	33.7 µM (inactive)	29 µM	37.9 µM (inactive)	23.4 µM (inactive)	51.4 µM (inactive)	65.9 µM (inactive)	54.6 µM (inactive)	29.4 µM (inactive)	47 µM (inactive)	66.8 µM (inactive)	34.7 µM (inactive)	> 100 µM (inactive)	52 µM (inactive)	44.9 µM (inactive)	> 100 µM (inactive)	–
O=C(CC(C(=O)O)N1CCOCC1)c1ccccc1 (centres undefined)	–	> 100 µM (inactive)	> 100 µM (inactive)	15.9 µM (inactive)	34.1 µM (inactive)	19.5 µM	19.1 µM (inactive)	18.4 µM (inactive)	21 µM (inactive)	16.7 µM (inactive)	21.1 µM (inactive)	> 100 µM (inactive)	> 100 µM (inactive)	17.1 µM (inactive)	20.7 µM (inactive)	27.4 µM (inactive)	19.5 µM (inactive)	–	41.2 µM (inactive)	–
C=CCCC(CCC=C)(C(=O)O)C(=O)O	–	–	> 100 µM (inactive)	> 100 µM (inactive)	> 100 µM (inactive)	> 100 µM	> 100 µM (inactive)	> 100 µM (inactive)	> 100 µM (inactive)	> 100 µM (inactive)	> 100 µM (inactive)	> 100 µM (inactive)	–	> 100 µM (inactive)	> 100 µM (inactive)	> 100 µM (inactive)	> 100 µM (inactive)	> 100 µM (inactive)	> 100 µM (inactive)	> 100 µM (inactive)
COc1cc(NS(C)(=O)=O)ccc1NCc1c[nH]c2ccc3nc(C)ccc3c12	20.1 µM (inactive)	45.7 µM (inactive)	> 100 µM (inactive)	38.7 µM (inactive)	72.1 µM (inactive)	37.9 µM	23.8 µM (inactive)	> 100 µM (inactive)	77.8 µM (inactive)	77.6 µM (inactive)	55 µM (inactive)	28.4 µM (inactive)	24.2 µM (inactive)	49.5 µM (inactive)	15.8 µM (inactive)	55.5 µM (inactive)	68.1 µM (inactive)	30.2 µM (inactive)	48.8 µM (inactive)	–
CN(C)CCCN1c2ccccc2Sc2cnccc21	63.1 µM (inactive)	83.2 µM (inactive)	> 100 µM (inactive)	42.4 µM (inactive)	> 100 µM (inactive)	> 100 µM	28.4 µM (inactive)	> 100 µM (inactive)	> 100 µM (inactive)	> 100 µM (inactive)	47 µM (inactive)	65 µM (inactive)	> 100 µM (inactive)	58.6 µM (inactive)	–	41.6 µM (inactive)	32.1 µM (inactive)	69.7 µM (inactive)	35.1 µM (inactive)	–
O=C1CCCCCCCCCCC1CN1CCOCC1 (centres undefined)	–	> 100 µM (inactive)	–	> 100 µM (inactive)	30.3 µM (inactive)	> 100 µM	–	> 100 µM (inactive)	> 100 µM (inactive)	> 100 µM (inactive)	> 100 µM (inactive)	> 100 µM (inactive)	> 100 µM (inactive)	–	> 100 µM (inactive)	> 100 µM (inactive)	–	> 100 µM (inactive)	> 100 µM (inactive)	> 100 µM (inactive)
NNC(=O)c1ccc(-n2nnc(C(=O)NN)c2C(=O)NN)cc1	> 100 µM (inactive)	–	> 100 µM (inactive)	> 100 µM (inactive)	–	> 100 µM	> 100 µM (inactive)	> 100 µM (inactive)	> 100 µM (inactive)	> 100 µM (inactive)	> 100 µM (inactive)	–	–	> 100 µM (inactive)	> 100 µM (inactive)	> 100 µM (inactive)	> 100 µM (inactive)	> 100 µM (inactive)	> 100 µM (inactive)	> 100 µM (inactive)
CC(=O)CSc1c(-c2ccccc2)c(=O)n(-c2ccccc2)c(=S)n1-c1ccccc1	> 100 µM (inactive)	> 100 µM (inactive)	> 100 µM (inactive)	> 100 µM (inactive)	82.2 µM (inactive)	> 100 µM	> 100 µM (inactive)	> 100 µM (inactive)	> 100 µM (inactive)	> 100 µM (inactive)	> 100 µM (inactive)	> 100 µM (inactive)	> 100 µM (inactive)	> 100 µM (inactive)	> 100 µM (inactive)	> 100 µM (inactive)	> 100 µM (inactive)	> 100 µM (inactive)	> 100 µM (inactive)	–
O=C(NC(=S)NC(=O)c1cc(O)c(O)c(O)c1)c1cc(O)c(O)c(O)c1	21.1 µM (inactive)	39.1 µM (inactive)	23.4 µM (inactive)	28.4 µM (inactive)	–	23.9 µM	20.1 µM (inactive)	–	24.2 µM (inactive)	27 µM (inactive)	22.6 µM (inactive)	22.7 µM (inactive)	–	25.9 µM (inactive)	23.7 µM (inactive)	–	26.5 µM (inactive)	7.93 µM (inactive)	17.1 µM (inactive)	31 µM (inactive)
NNC(=O)Cn1ccnn1	> 100 µM (inactive)	–	> 100 µM (inactive)	> 100 µM (inactive)	–	> 100 µM	> 100 µM (inactive)	> 100 µM (inactive)	> 100 µM (inactive)	> 100 µM (inactive)	> 100 µM (inactive)	> 100 µM (inactive)	–	> 100 µM (inactive)	> 100 µM (inactive)	> 100 µM (inactive)	> 100 µM (inactive)	> 100 µM (inactive)	> 100 µM (inactive)	> 100 µM (inactive)
O=C1Cc2c([nH]c3c(Cl)cccc23)-c2ccccc2N1	–	> 100 µM (inactive)	–	> 100 µM (inactive)	87.3 µM (inactive)	> 100 µM	–	–	> 100 µM (inactive)	> 100 µM (inactive)	> 100 µM (inactive)	> 100 µM (inactive)	> 100 µM (inactive)	> 100 µM (inactive)	> 100 µM (inactive)	> 100 µM (inactive)	> 100 µM (inactive)	> 100 µM (inactive)	> 100 µM (inactive)	–
CN1C(=O)C(=O)c2cc3c(c4c2c1cc1ccccc14)OCO3 [CEPHARADIONE A]	31.3 µM (inactive)	25.2 µM (inactive)	–	52.5 µM (inactive)	–	36.1 µM	46.7 µM (inactive)	69.7 µM (inactive)	47.4 µM (inactive)	43.4 µM (inactive)	28.7 µM (inactive)	22.6 µM (inactive)	–	34.4 µM (inactive)	40.7 µM (inactive)	41.2 µM (inactive)	26.7 µM (inactive)	–	38.7 µM (inactive)	49.1 µM (inactive)
